Like-named read-outs stand apart in the source and are kept apart here.
Assays:
MAO-A = MAO-A (Rattus norvegicus, UniProt P21396); test: in vivo; details: for MAO-A activity, brain / MAO-A activity, intestine / MAO-A activity, liver: two weeks; for MAO-A inhibition in the intestine: three lowest doses 0.02-0.1 mg/kg/day (salt); for inhibition at 0.02 mg/kg/day / inhibition at 0.05 mg/kg/day / inhibition at 0.1 mg/kg/day / inhibition at 0.2 mg/kg/day / inhibition at 0.4 mg/kg/day / inhibition at 0.8 mg/kg/day: rat
Source text: (§1) ALZET® osmotic minipumps are described in Perkins L, Peer C, and Murphy-Hackley P. “Chapter 21: The use of mini-osmotic pumps in continuous infusion studies” in Handbook of Pre-Clinical Continuous Intravenous Infusion, (Smith & Healing, eds., Taylor and Francis, 2000), the contents of which are incorporated herein by reference.
The osmotic minipumps were inserted subcutaneously with a single surgical procedure: after clipping the fur from the dorsal area and cleaning the skin with antiseptic skin preparation, about 1 cm long incision was made on the dorsum of the animal, midway between both scappulae. The pump was placed along the axis of the body to one side of the backbone. The incision was positioned about 1-2 cm caudal to the estimated caudal end of the minipump when it is in place.
After two weeks of treatment the animals were sacrificed. From each rat, brain (half) and a part of liver were dissected and frozen. The intestine was excised about ½ cm below the stomach about 1-2 cm long, washed with sucrose 0.32 Molar and frozen at −70° C.
Tissue homogenates were pre incubated (37° C.) in the presence of clorgyline or deprenyl to inhibit the activity of MAO-A or MAO-B respectively. For MAO-B determination, samples were incubated for 20 minutes with C^14 PEA 10 μM and for MAO-A determination samples were incubated 30 minutes with C^14 −5HT 100 μM as substrate Termination of the reaction was done by acidification. The labeled metabolites were extracted into toluene:ethyl acetate, and counted in a β counter.

[1] = rats
Source text: as §1
ALZET® pumps groups were weighed on the first and last day of the study. The oral administered groups were weighed on the first day and also on day 6 and 13 of the study.

[2] = AZILECT Product Label, May 2006; cited from earlier work
[3] = po, read-out: Percent of MAO-A inhibition, brain
[4] = po, read-out: Percent of MAO-A inhibition, intestine
[5] = po, read-out: Percent of MAO-A inhibition, liver
[6] = sc, read-out: Percent of MAO-A inhibition, brain
[7] = sc, read-out: Percent of MAO-A inhibition, intestine
[8] = sc, read-out: Percent of MAO-A inhibition, liver

Sequence of MAO-A (P21396 whole entry, the tested form may be a part): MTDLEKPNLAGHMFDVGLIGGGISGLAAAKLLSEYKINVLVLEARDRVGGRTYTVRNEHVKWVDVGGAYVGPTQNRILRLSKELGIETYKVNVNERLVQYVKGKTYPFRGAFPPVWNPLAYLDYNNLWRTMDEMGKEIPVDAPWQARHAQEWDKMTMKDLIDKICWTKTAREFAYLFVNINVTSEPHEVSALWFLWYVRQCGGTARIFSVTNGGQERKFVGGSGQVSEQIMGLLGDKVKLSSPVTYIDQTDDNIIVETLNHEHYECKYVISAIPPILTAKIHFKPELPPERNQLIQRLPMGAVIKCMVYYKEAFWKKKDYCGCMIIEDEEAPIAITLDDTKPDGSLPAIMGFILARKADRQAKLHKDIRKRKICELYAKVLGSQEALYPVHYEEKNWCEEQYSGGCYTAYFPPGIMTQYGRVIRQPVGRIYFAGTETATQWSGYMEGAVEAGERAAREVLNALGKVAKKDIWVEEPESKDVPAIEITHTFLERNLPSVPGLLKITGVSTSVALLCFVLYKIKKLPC

SMILES: C#CCN[C@@H]1CCc2ccccc21 [rasagiline, R(+)-N-propargyl-l-aminoindan]
- dose dependence of MAO-A inhibition (MAO-A; all tissues (intestine, brain, liver)): Dose Dependent
- MAO-A inhibition in the brain, ALZET pumps compared with oral administration (MAO-A; brain): higher
- MAO-A activity, brain (MAO-A; brain, oral, 0.02 mg/kg/day (salt)): 3441 dpm
- MAO-A activity, brain (MAO-A; brain, oral, 0.05 mg/kg/day (salt)): 3031 dpm
- MAO-A activity, brain (MAO-A; brain, oral, 0.1 mg/kg/day (salt)): 2822 dpm
- MAO-A activity, brain (MAO-A; brain, oral, 0.2 mg/kg/day (salt)): 2319 dpm
- MAO-A activity, brain (MAO-A; brain, oral, 0.4 mg/kg/day (salt)): 1417 dpm
- MAO-A activity, brain (MAO-A; brain, oral, 0.8 mg/kg/day (salt)): 803 dpm
- MAO-A activity, brain (MAO-A; brain, sc ALZET pumps, 0.02 mg/kg/day (salt)): 3479 dpm
- MAO-A activity, brain (MAO-A; brain, sc ALZET pumps, 0.05 mg/kg/day (salt)): 2974 dpm
- MAO-A activity, brain (MAO-A; brain, sc ALZET pumps, 0.1 mg/kg/day (salt)): 2595 dpm
- MAO-A activity, brain (MAO-A; brain, sc ALZET pumps, 0.2 mg/kg/day (salt)): 1613 dpm
- MAO-A activity, brain (MAO-A; brain, sc ALZET pumps, 0.4 mg/kg/day (salt)): 917 dpm
- MAO-A activity, brain (MAO-A; brain, sc ALZET pumps, 0.8 mg/kg/day (salt)): 466 dpm
- MAO-A inhibition in the intestine, subcutaneous pumps compared with oral administration (MAO-A; intestine, 14 days, differences statistically significant): lower
- MAO-A activity, intestine (MAO-A; intestine, oral, 0.02 mg/kg/day (salt)): 2712 dpm
- MAO-A activity, intestine (MAO-A; intestine, oral, 0.05 mg/kg/day (salt)): 2607 dpm
- MAO-A activity, intestine (MAO-A; intestine, oral, 0.1 mg/kg/day (salt)): 2308 dpm
- MAO-A activity, intestine (MAO-A; intestine, oral, 0.2 mg/kg/day (salt)): 1891 dpm
- MAO-A activity, intestine (MAO-A; intestine, oral, 0.4 mg/kg/day (salt)): 1194 dpm
- MAO-A activity, intestine (MAO-A; intestine, oral, 0.8 mg/kg/day (salt)): 785 dpm
- MAO-A activity, intestine (MAO-A; intestine, sc ALZET pumps, 0.02 mg/kg/day (salt)): 3199 dpm
- MAO-A activity, intestine (MAO-A; intestine, sc ALZET pumps, 0.05 mg/kg/day (salt)): 2831 dpm
- MAO-A activity, intestine (MAO-A; intestine, sc ALZET pumps, 0.1 mg/kg/day (salt)): 3029 dpm
- MAO-A activity, intestine (MAO-A; intestine, sc ALZET pumps, 0.2 mg/kg/day (salt)): 2604 dpm
- MAO-A activity, intestine (MAO-A; intestine, sc ALZET pumps, 0.4 mg/kg/day (salt)): 1937 dpm
- MAO-A activity, intestine (MAO-A; intestine, sc ALZET pumps, 0.8 mg/kg/day (salt)): 1708 dpm
- MAOA inhibitory values in the intestine (MAO-A; intestine, sc ALZET pumps, dose from 0.2 to 0.8 mg/kg): < 50%
- MAO-A inhibition in the intestine (MAO-A; intestine, given by pumps): did not inhibit
- MAO-A inhibition in the intestine (MAO-A; intestine, given orally): 26-37%
- hepatic MAO-A inhibition, subcutaneous ALZET pumps compared with oral (MAO-A; liver): higher
- MAO-A activity, liver (MAO-A; liver, oral, 0.02 mg/kg/day (salt)): 2127 dpm
- MAO-A activity, liver (MAO-A; liver, oral, 0.05 mg/kg/day (salt)): 2199 dpm
- MAO-A activity, liver (MAO-A; liver, oral, 0.1 mg/kg/day (salt)): 1963 dpm
- MAO-A activity, liver (MAO-A; liver, oral, 0.2 mg/kg/day (salt)): 1582 dpm
- MAO-A activity, liver (MAO-A; liver, oral, 0.4 mg/kg/day (salt)): 1058 dpm
- MAO-A activity, liver (MAO-A; liver, oral, 0.8 mg/kg/day (salt)): 681 dpm
- MAO-A activity, liver (MAO-A; liver, sc ALZET pumps, 0.02 mg/kg/day (salt)): 2192 dpm
- MAO-A activity, liver (MAO-A; liver, sc ALZET pumps, 0.05 mg/kg/day (salt)): 2185 dpm
- MAO-A activity, liver (MAO-A; liver, sc ALZET pumps, 0.1 mg/kg/day (salt)): 1930 dpm
- MAO-A activity, liver (MAO-A; liver, sc ALZET pumps, 0.2 mg/kg/day (salt)): 646 dpm
- MAO-A activity, liver (MAO-A; liver, sc ALZET pumps, 0.4 mg/kg/day (salt)): 27 + dpm
- MAO-A activity, liver (MAO-A; liver, sc ALZET pumps, 0.8 mg/kg/day (salt)): 4 dpm
- inhibition at 0.02 mg/kg/day (MAO-A; [3]): 6%
- inhibition at 0.05 mg/kg/day (MAO-A; [3]): 15%
- inhibition at 0.1 mg/kg/day (MAO-A; [3]): 23%
- inhibition at 0.2 mg/kg/day (MAO-A; [3]): 37%
- inhibition at 0.4 mg/kg/day (MAO-A; [3]): 61%
- inhibition at 0.8 mg/kg/day (MAO-A; [3]): 78%
- inhibition at 0.02 mg/kg/day (MAO-A; [4]): 26%
- inhibition at 0.1 mg/kg/day (MAO-A; [4]): 37%
- inhibition at 0.2 mg/kg/day (MAO-A; [4]): 48%
- inhibition at 0.8 mg/kg/day (MAO-A; [4]): 79%
- inhibition at 0.02 mg/kg/day (MAO-A; [5]): 8%
- inhibition at 0.05 mg/kg/day (MAO-A; [5]): 5%
- inhibition at 0.1 mg/kg/day (MAO-A; [5]): 18%
- inhibition at 0.2 mg/kg/day (MAO-A; [5]): 31%
- inhibition at 0.8 mg/kg/day (MAO-A; [5]): 70%
- inhibition at 0.02 mg/kg/day (MAO-A; [6]): 8%
- inhibition at 0.05 mg/kg/day (MAO-A; [6]): 21%
- inhibition at 0.1 mg/kg/day (MAO-A; [6]): 31%
- inhibition at 0.2 mg/kg/day (MAO-A; [6]): 57%
- inhibition at 0.4 mg/kg/day (MAO-A; [6]): 76%
- inhibition at 0.8 mg/kg/day (MAO-A; [6]): 88%
- inhibition at 0.02 mg/kg/day (MAO-A; [7]): -8%
- inhibition at 0.05 mg/kg/day (MAO-A; [7]): 1%
- inhibition at 0.1 mg/kg/day (MAO-A; [7]): -3%
- inhibition at 0.2 mg/kg/day (MAO-A; [7]): 12%
- inhibition at 0.4 mg/kg/day (MAO-A; [7]): 34%
- inhibition at 0.8 mg/kg/day (MAO-A; [7]): 42%
- inhibition at 0.02 mg/kg/day (MAO-A; [8]): 1%
- inhibition at 0.05 mg/kg/day (MAO-A; [8]): 1%
- inhibition at 0.1 mg/kg/day (MAO-A; [8]): 13%
- inhibition at 0.2 mg/kg/day (MAO-A; [8]): 71%
- inhibition at 0.4 mg/kg/day (MAO-A; [8]): 99%
- inhibition at 0.8 mg/kg/day (MAO-A; [8]): 100%
- weight gain ([1]; 0.8 mg/kg/day delivered by ALZET pumps, first to last day of two-week study): 1.3%
- weight gain ([1]; all oral and ALZET pump groups except 0.8 mg/kg/day by ALZET pumps): 6-9%
- absolute bioavailability [2]: about 36%

From patent US9308182B2 (TEVA PHARMACEUTICAL INDUSTRIES, LTD., priority 2012, dated 2016)
